Laboratory results from patent US20220304307A1, “SYNERGISTIC MIXTURES FOR ARTHROPOD TOXICITY AND REPELLENCY” (University of Florida Research Foundation, Incorporated, priority 2019, published 2022).
Entries after “also recorded” stand apart in the source; their conditions may differ. Counter-ions that a name gives are not always drawn.

How the values were obtained:
[1] = system: Orlando insecticide-susceptible strain of Ae. aegypti (female mosquitoes); test: Glass tube spatial repellency assay; assay type: in vivo, Aedes aegypti; conditions: for EC50 (95% CL), repellency of TFA esters: 1 hr exposures, Ae. aegypti females; for spatial repellency in screening: 100 μg/cm^2, 1 hr exposure; for spatial repellency in screening / repellency EC50 / repellency at highest concentration tested (words): compound alone; for repellency EC50 (+TFA): applied as mixture with TFA (50 μg/cm^2); for repellency EC50 (+TFA) / repellency EC50 / effect of TFA on repellency, applied as mixture: 1 hr; for synergist ratio SR (EC50 compound alone/EC50 compound+TFA): TFA 50 μg/cm^2 as mixture; for 15 min repellency ratio / 30 min repellency ratio / 1 hr repellency ratio: horizontal tube, 0.5=0% repellency, 0=100% repellency; for effect of TFA on repellency, applied as mixture: TFA 50 μg/cm^2 + EC20 of test compound (permethrin 30 μg/cm^2); for repellency at highest concentration tested (words): 1-2 mg/cm^2; for effect of TFA on repellency, applied side-by-side: TFA 50 μg/cm^2 side-by-side, DEET 18 μg/cm^2; for synergism of repellency with citronella: citronella at its EC20 (20 μg/cm^2)
Experimental: The following assay was conducted according to the procedures of Jiang et al., 2019 (Jiang S., Yang L, and Bloomquist J (2019) High-throughput screening method for evaluating spatial repellency and vapor toxicity to mosquitoes. Med. Vet. Entomol.). For assessing behavioral repellency (FIG. 1), sixteen female Aedes aegypti mosquitoes were transferred to a glass tube (12.5 cm long, 2.5 cm outer diameter) with the ends covered with netting. Metofluthrin, bifenthrin, permethrin, pyrethrum, transfluthrin, deltamethrin, esfenvalerate, metofluthrin acid, bifenthrin acid, phenothrin acid, transchryanthemic acid, transfluthrin acid, deltamethrin acid, and fenvalerate acid were each dissolved in 1 mL of acetone and serial dilutions ranging from 30-0.01 μg/ml were made. Circular filter papers (5 cm^2) were saturated with 50 μL of each concentration and allowed 10 min for solvent evaporation. The filter papers were then placed in clear conical polypropylene caps and fixed to the end of the glass tubes. The netting prevented mosquito contact with the filter paper. Tubes were then aligned with a mark denoting the midline and the proportion of mosquitoes on the chemically treated side was scored at 15, 30, and 60 min. At the end of the test, the tube was placed in a cage and the ability of the mosquitoes to fly out of the tube was assessed for 30 min. […] This post-test evaluated whether any non-responding mosquitoes (not repelled) was due to intoxication or disorientation from the test chemical. For vapor toxicity, the assay was identical, except that mosquitoes were kept in the tube for 24 hr without the post-test at 1 hr, and the mortality was recorded at 24 hr.

female Ae. aegypti = test: Human arm bite protection assay; assay type: in vivo, Aedes aegypti; conditions: for MED values Female 10: as E30, volunteer one; for MED values Female 9: as E30, volunteer two; for MED Mean: mean of three human volunteers; for MED values Male 4: minimum amount preventing 99% of bites, treated cloth patch, 1 min in cage, mixtures with TFA 0.047 or TCA 0.094 mg/cm^2
Experimental: A human bite protection assay was performed according to see if the repellency observed in glass tubes extended to bite protection. The assay was run in accordance with that of Tsikolia et al. (Tsikolia M, Bernier UR, Coy M, Chalaire K, Becnel J, Agramonte N, Tabanca N, Wedge D, Clark G, Linthicum K, Swale D, and J. R. Bloomquist J (2013) Insecticidal and fungicidal properties of novel trifluoromethylphenyl amides. Pestic. Biochem. Physiol. 107, 138-147). Treated cloth patches were worn by human volunteers and the number of blood fed mosquitoes was determined after 1 min spent in a cage with 500 (±10%) female Ae. aegypti. Minimum Effective Dosage (MED in mg/cm^2) is the minimum amount required to prevent 99% of bites in three human volunteers (UF IRB #201602334). Synergist ratio (SR)=MED chemical alone/MED chemical+TFA (0.047 mg/cm^2) or TCA (0.094 mg/cm^2).

CC1(C)[C@H](C=C(Cl)Cl)[C@H]1C(=O)OC1CCC1 [GMR 125, Cyclobutyl (1R,3S)-3-(2,2-dichlorovinyl)-2,2-dimethylcyclopropane-1-carboxylate]
EC50 (95% CL), repellency of TFA esters [1]: 17 (11-27) μg/cm^2

OCc1c(F)c(F)cc(F)c1F [TF-OH, transfluthrin alcohol]
spatial repellency in screening [1]: significant repellency | repellency EC50 (+TFA) [1]: 41 μg/cm^2 | repellency EC50 [1]: 80 μg/cm^2 | synergist ratio SR (EC50 compound alone/EC50 compound+TFA) ([1]; repellency): about 2

O=Cc1ccccc1 [benzaldehyde, reference compound]
repellency EC50 (+TFA) [1]: 15 μg/cm^2 | repellency EC50 [1]: 118 μg/cm^2 | synergist ratio SR (EC50 compound alone/EC50 compound+TFA) ([1]; repellency): 8

Cc1cccc(C(N)=O)c1 [m-toluamide]
15 min repellency ratio ([1]; 10 μg/cm^2): 0.50 | 30 min repellency ratio ([1]; 10 μg/cm^2): 0.50 | 1 hr repellency ratio ([1]; 10 μg/cm^2): 0.38 | 15 min repellency ratio ([1]; 100 μg/cm^2): 0.19 | 30 min repellency ratio ([1]; 100 μg/cm^2): 0.31 | 1 hr repellency ratio ([1]; 100 μg/cm^2): 0.06

CC1(C)C(C=C(Cl)Cl)C1C(=O)OCc1cccc(Oc2ccccc2)c1 (stereo not drawn) [permethrin, 3-phenoxybenzyl 3-(β,β-dichlorovinyl)-2,2-dimethylcyclopropanecarboxylate, reference compound]
spatial repellency in screening [1]: inactive as vapor phase repellents | effect of TFA on repellency, applied as mixture [1]: some spatial repellency | repellency EC50 (+TFA) [1]: 9.5 μg/cm^2 | repellency at highest concentration tested (words) [1]: repellency was not observed | repellency at highest concentration tested (words) ([1]; listed as Permethrin): inactive | repellency EC50 [1]: >1000 μg/cm^2 | synergist ratio SR (EC50 compound alone/EC50 compound+TFA) ([1]; repellency): >105 | MED values Female 10 (female Ae. aegypti): 0.187 mg/cm^2 | MED values Female 9 (female Ae. aegypti): 0.187 mg/cm^2 | MED Mean (female Ae. aegypti): 0.187 mg/cm^2 | MED values Male 4 (female Ae. aegypti): 0.187 mg/cm^2

Cc1c(COC(=O)C2C(/C=C(/Cl)C(F)(F)F)C2(C)C)cccc1-c1ccccc1 (stereo not drawn) [bifenthrin, Bifenthrin, reference compound]
spatial repellency in screening [1]: some repellency at high exposure

CCN(CC)C(=O)c1cccc(C)c1 [DEET, N,N-diethyl-m-toluamide, reference compound]
effect of TFA on repellency, applied as mixture [1]: no statistically significant effect | effect of TFA on repellency, applied side-by-side [1]: synergistic effect was observed | repellency EC50 +TFA(S) ([1]; TFA (50 μg/cm^2) applied side-by-side on halves of the filter): 8.1 μg/cm^2 | repellency EC50 (+TFA) [1]: 26 μg/cm^2 | synergism of repellency with citronella [1]: did not synergize | repellency EC50 [1]: 39 μg/cm^2 | synergist ratio SR (EC50 compound alone/EC50 compound+TFA) ([1]; repellency): 1.5 | fold decrease of EC50 by TFA side-by-side ([1]; repellency, TFA 50 μg/cm^2 side-by-side treatment): ~5 fold | MED values Female 10 (female Ae. aegypti): 0.011 mg/cm^2 | MED values Female 9 (female Ae. aegypti): 0.011 mg/cm^2 | MED Mean (female Ae. aegypti): 0.011 mg/cm^2 | MED values Male 4 (female Ae. aegypti): 0.011 mg/cm^2

CC1(C)C(C=C(Cl)Cl)C1C(=O)O (stereo not drawn) [TFA, transfluthrin acid]
repellency of TFA by itself ([1]; TFA alone, 50 μg/cm^2 and higher): no repellent activity by itself; also recorded: no effect; also recorded: inactive by itself | synergism of repellency with citronella [1]: strong positive response; also recorded: Synergistic interactions were discovered | MED values Female 10 (female Ae. aegypti): 0.094 mg/cm^2 | MED values Female 9 (female Ae. aegypti): 0.187 mg/cm^2 | MED Mean (female Ae. aegypti): 0.156 mg/cm^2 | MED values Male 4 (female Ae. aegypti): 0.187 mg/cm^2

CCCCN(CCC(=O)OCC)C(C)=O [IR3535, ethyl butylacetylaminopropionate]
effect of TFA on repellency, applied as mixture [1]: no statistically significant effect | MED values Female 10 (female Ae. aegypti): 0.047 mg/cm^2 | MED values Female 9 (female Ae. aegypti): 0.047 mg/cm^2 | MED Mean (female Ae. aegypti): 0.063 mg/cm^2 | MED values Male 4 (female Ae. aegypti): 0.094 mg/cm^2

CC1(C)[C@H](C=C(Cl)Cl)[C@H]1C(=O)OC1CC1 [GMR 126, Cyclopropyl (1R,3S)-3-(2,2-dichlorovinyl)-2,2-dimethylcyclopropane-1-carboxylate]
EC50 (95% CL), repellency of TFA esters [1]: 8.5 (5-13) μg/cm^2 | repellency EC50 (+TFA) [1]: 0.35 μg/cm^2 | repellency EC50 [1]: 8.5 μg/cm^2 | synergist ratio SR (EC50 compound alone/EC50 compound+TFA) ([1]; repellency): 24

CCCCCCCCCC(C)=O [2-undecanone]
repellency EC50 (+TFA) [1]: 5.1 μg/cm^2 | repellency EC50 [1]: 59 μg/cm^2 | synergist ratio SR (EC50 compound alone/EC50 compound+TFA) ([1]; repellency): 11.6 | MED values Female 10 (female Ae. aegypti): 0.375 mg/cm^2 | MED values Female 9 (female Ae. aegypti): 0.187 mg/cm^2 | MED Mean (female Ae. aegypti): 0.219 mg/cm^2 | MED values Male 4 (female Ae. aegypti): 0.094 mg/cm^2

COCc1c(F)c(F)c(CO)c(F)c1F [metofluthrin alcohol]
synergism of repellency with GMR 134 ([1]; alcohol 100 μg/cm^2 mixed with GMR 134 at 2 μg/cm^2): significantly synergized

CC1(C)[C@H](C(=O)O[C@H](C#N)c2cccc(Oc3ccccc3)c2)[C@@H]1C=C(Br)Br [deltamethrin, Deltamethrin, reference compound]
spatial repellency in screening [1]: inactive as vapor phase repellents

CC1(C)[C@H](C=C(Cl)Cl)[C@H]1C(=O)OC1CCCC1 [GMR 124, Cyclopentyl (1R,3S)-3-(2,2-dichlorovinyl)-2,2-dimethylcyclopropane-1-carboxylate]
EC50 (95% CL), repellency of TFA esters [1]: 11 (8-15) μg/cm^2

benzyloxybenzaldehyde
15 min repellency ratio ([1]; 10 μg/cm^2): 0.69 | 30 min repellency ratio ([1]; 10 μg/cm^2): 0.69 | 1 hr repellency ratio ([1]; 10 μg/cm^2): 0.63 | 15 min repellency ratio ([1]; 100 μg/cm^2): 0.69 | 30 min repellency ratio ([1]; 100 μg/cm^2): 0.81 | 1 hr repellency ratio ([1]; 100 μg/cm^2): 0.44

CC/C=C\C[C@H]1C(=O)CC[C@@H]1CC(=O)OC [methyl jasmonate, Methyl (1R,2R)-3-Oxo-2-(2Z)-2-pentenyl-cyclopentaneacetate]
repellency EC50 (+TFA) [1]: 6 μg/cm^2 | repellency EC50 [1]: 39 μg/cm^2 | synergist ratio SR (EC50 compound alone/EC50 compound+TFA) ([1]; repellency): 6.5 | MED values Female 10 (female Ae. aegypti): 0.75 mg/cm^2 | MED values Female 9 (female Ae. aegypti): 0.75 mg/cm^2 | MED Mean (female Ae. aegypti): >1 mg/cm^2 | MED values Male 4 (female Ae. aegypti): >1.5 mg/cm^2

O=Cc1cccc(Oc2ccccc2)c1 [3-phenoxybenzaldehyde]
MED values Female 10 (female Ae. aegypti): 0.750 mg/cm^2 | MED values Female 9 (female Ae. aegypti): >0.75 mg/cm^2 | MED Mean (female Ae. aegypti): >0.75 mg/cm^2 | MED values Male 4 (female Ae. aegypti): >0.75 mg/cm^2

CCCCCOC(=O)[C@@H]1[C@@H](C=C(Cl)Cl)C1(C)C [GMR 120, nPentyl (1R,3S)-3-(2,2-dichlorovinyl)-2,2-dimethylcyclopropane-1-carboxylate]
EC50 (95% CL), repellency of TFA esters [1]: 10 (7-15) μg/cm^2

CCc1ccc(NC(=O)CSc2nnc(-c3cccnc3)n2CC)cc1 [VUAA-1, 2-(4-Ethyl-5-(pyridin-3-yl)-4H-1,2,4-triazol-3-ylthio)-N-(4-ethylphenyl)acetamide, reference compound]
effect of TFA on repellency, applied side-by-side [1]: synergism disappeared | repellency EC50 (+TFA) [1]: 30 μg/cm^2 | repellency EC50 +citronella ([1]; co-applied citronella at its EC20 (20 μg/cm^2)): 34 μg/cm^2 | repellency at highest concentration tested (words) [1]: inactive; also recorded: repellency was not observed | repellency EC50 [1]: >2000 μg/cm^2 | synergist ratio SR (EC50 compound alone/EC50 compound+TFA) ([1]; repellency): >67
